According to US9321757B2, “Heterocyclic compound” (Takeda Pharmaceutical Company Limited, priority 2013, dated 2016):

Molecular target: T1, IRAK-4 (Homo sapiens, UniProt Q9NWZ3)
T1 construct: purchased Carna Biosciences, Inc
T1 sequence (Q9NWZ3 1-460): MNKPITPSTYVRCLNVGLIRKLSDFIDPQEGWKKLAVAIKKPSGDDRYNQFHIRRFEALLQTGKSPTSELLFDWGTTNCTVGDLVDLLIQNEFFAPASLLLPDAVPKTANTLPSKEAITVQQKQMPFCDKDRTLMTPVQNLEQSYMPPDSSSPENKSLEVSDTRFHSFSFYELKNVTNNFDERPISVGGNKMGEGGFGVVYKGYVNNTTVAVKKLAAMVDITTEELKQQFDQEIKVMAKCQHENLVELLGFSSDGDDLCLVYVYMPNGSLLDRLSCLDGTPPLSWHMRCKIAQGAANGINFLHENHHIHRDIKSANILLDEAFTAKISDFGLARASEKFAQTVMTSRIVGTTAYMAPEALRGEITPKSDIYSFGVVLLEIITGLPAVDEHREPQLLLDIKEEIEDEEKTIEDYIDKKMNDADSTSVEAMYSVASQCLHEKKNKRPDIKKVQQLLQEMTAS
Assay: IRAK-4 Enzyme Inhibition Test (LANCE method)
Assay type: biochemical
Settings: compound concentration 1 μM, well without enzyme = 100% inhibition; for inhibition at 1 µM: read-out: IRAK4 enzyme inhibitory rate (%) at 1 μM
Procedure: IRAK-4 enzyme inhibitory activities of test compounds were measured by LANCE method (PerkinElmer). First, a test compound diluted with assay buffer (50 mM HEPES (pH7.5), 10 mM MgCl2, 1 mM EGTA, 2 mM DTT, 0.01% Tween 20, 0.01% BSA) was added to 384-well plate at 2 μL each. Then, IRAK-4 (Carna Biosciences, Inc.) and a fluorescence-labeled peptide substrate (ULight-ACC peptide, PerkinElmer) solution diluted with assay buffer at 240 ng/mL and 37.5 nM, respectively were added at 2 μL each. Then, enzyme reaction was started by adding 2 μL each of ATP solution prepared with assay buffer at 1.5 mM. After the reaction at room temperature for 1 hr, Detection Buffer (PerkinElmer) prepared to be 20 mM EDTA, 1 nM europium-labeled anti-phospho ACC antibody (PerkinElmer) was added at 6 μL each. After standing at room temperature for 1 hr, fluorescence intensity (excitation wavelength 340 nm, fluorescence wavelength 665 nm, delay time 100 microseconds) was measured by a plate reader, Envision (PerkinElmer). The inhibitory activity of each compound was calculated as relative value where fluorescence intensity of a well without enzyme is considered as 100% inhibition.

| inhibition at 1 µM [%] | IRAK4 enzyme inhibitory rate (%) at 1 μM [%] | SMILES |
| --- | --- | --- |
| 100 | – | Cn1cc(NC(=O)c2coc(-c3ccnc(NCC4CC4)c3)n2)c(N2CCN(CCO)C2=O)n1 [Example 59, 2-(2-((cyclopropylmethyl)amino)pyridin-4-yl)-N-(3-(3-(2-hydroxyethyl)-2-oxoimidazolidin-1-yl)-1-methyl-1H-pyrazol-4-yl)-1,3-oxazole-4-carboxamide] |
| 99 | – | Cn1cc(NC(=O)c2coc(-c3ccnc(NCC(F)F)c3)n2)c(N2CCN(CCO)C2=O)n1 [Example 60, 2-(2-((2,2-difluoroethyl)amino)pyridin-4-yl)-N-(3-(3-(2-hydroxyethyl)-2-oxoimidazolidin-1-yl)-1-methyl-1H-pyrazol-4-yl)-1,3-oxazole-4-carboxamide] |
| 100 | – | CN(C)CC1CN(c2nn(C)cc2NC(=O)c2coc(-c3ccnc(NCC(F)(F)F)c3)n2)C(=O)C1(C)C (stereo not shown) [Example 61, N-(3-(4-((dimethylamino)methyl)-3,3-dimethyl-2-oxopyrrolidin-1-yl)-1-methyl-1H-pyrazol-4-yl)-2-(2-((2,2,2-trifluoroethyl)amino)pyridin-4-yl)-1,3-oxazole-4-carboxamide] |
| – | 100 | CN(C)CC1CN(c2nn(C)cc2NC(=O)c2coc(-c3ccnc(NCC(F)(F)F)c3)n2)C(=O)C1(C)C (stereo not shown) [Example 62, N-(3-(4-((dimethylamino)methyl)-3,3-dimethyl-2-oxopyrrolidin-1-yl)-1-methyl-1H-pyrazol-4-yl)-2-(2-((2,2,2-trifluoroethyl)amino)pyridin-4-yl)-1,3-oxazole-4-carboxamide] |
| 99 | – | C[C@H]1CCN(c2nn(C)cc2NC(=O)c2coc(-c3ccnc(NCC(F)(F)F)c3)n2)C1=O [Example 77, N-(1-methyl-3-((3S)-3-methyl-2-oxopyrrolidin-1-yl)-1H-pyrazol-4-yl)-2-(2-((2,2,2-trifluoroethyl)amino)pyridin-4-yl)-1,3-oxazole-4-carboxamide] |
| 99 | – | Cn1cc(NC(=O)c2coc(-c3ccnc(NCC(F)(F)F)c3)n2)c(N2CC(CO)C(C)(C)C2=O)n1 (stereo not shown) [Example 101, N-(3-(4-(hydroxymethyl)-3,3-dimethyl-2-oxopyrrolidin-1-yl)-1-methyl-1H-pyrazol-4-yl)-2-(2-((2,2,2-2-trifluoroethyl)amino)pyridin-4-yl)-1,3-oxazole-4-carboxamide] |
| 98 | – | CNCC1CN(c2nn(C)cc2NC(=O)c2coc(-c3ccnc(NCC(F)(F)F)c3)n2)C(=O)N1C (stereo not shown) [Example 110, N-(1-methyl-3-(3-methyl-4-((methylamino)methyl)-2-oxoimidazolidin-1-yl)-1H-pyrazol-4-yl)-2-(2-((2,2,2-trifluoroethyl)amino)pyridin-4-yl)-1,3-oxazole-4-carboxamide] |
| 98 | – | CC(O)CN1CCN(c2nn(C)cc2NC(=O)c2coc(-c3ccnc(NCC(F)(F)F)c3)n2)C1=O (stereo not shown) [Example 164, N-(3-(3-(2-hydroxypropyl)-2-oxoimidazolidin-1-yl)-1-methyl-1H-pyrazol-4-yl)-2-(2-((2,2,2-trifluoroethyl)amino)pyridin-4-yl)-1,3-oxazole-4-carboxamide] |
| 99 | – | Cn1cc(NC(=O)c2cccc(N3C[C@@H](CN)NC3=O)n2)c(N2CCC(C)(C)C2=O)n1 [Example 199, 6-((4R)-4-(aminomethyl)-2-oxoimidazolidin-1-yl)-N-(3-(3,3-dimethyl-2-oxopyrrolidin-1-yl)-1-methyl-1H-pyrazol-4-yl)pyridine-2-carboxamide] |
| 100 | – | Cn1cc(NC(=O)c2cccc(N3CC4(CCNC4)NC3=O)n2)c(N2CCC(C)(C)C2=O)n1 (stereo not shown) [Example 206, N-(3-(3,3-dimethyl-2-oxopyrrolidin-1-yl)-1-methyl-1H-pyrazol-4-yl)-6-(2-oxo-1,3,7-triazaspiro[4.4]non-3-yl)pyridine-2-carboxamide] |
| 100 | – | CN1CCN(c2nn(C)cc2NC(=O)c2cccc(N3CC4(CCNC4)NC3=O)n2)C1=O (stereo not shown) [Example 215, N-(1-methyl-3-(3-methyl-2-oxoimidazolidin-1-yl)-1H-pyrazol-4-yl)-6-(2-oxo-1,3,7-triazaspiro[4.4]non-3-yl)pyridine-2-carboxamide] |

More lines, now with the values behind:

| SMILES | inhibition at 1 µM [%] | IRAK4 enzyme inhibitory rate (%) at 1 μM [%] |
| --- | --- | --- |
| Cn1cc(NC(=O)c2coc(-c3ccnc(NCC(F)(F)F)c3)n2)c(N2C[C@@H](O)CC2=O)n1 [Example 1, N-(3-((4S)-4-hydroxy-2-oxopyrrolidin-1-yl)-1-methyl-1H-pyrazol-4-yl)-2-(2-((2,2,2-trifluoroethyl)amino)pyridin-4-yl)-1,3-oxazole-4-carboxamide] | 98 | – |
| CC1CCN(c2nn(C)cc2NC(=O)c2coc(-c3ccnc(NCC(F)(F)F)c3)n2)C1=O (stereo not shown) [Example 2, N-(1-methyl-3-(3-methyl-2-oxopyrrolidin-1-yl)-1H-pyrazol-4-yl)-2-(2-((2,2,2-trifluoroethyl)amino)pyridin-4-yl)-1,3-oxazole-4-carboxamide] | 98 | – |
| CN(C)CC1CC(=O)N(c2nn(C)cc2NC(=O)c2coc(-c3ccnc(NCC(F)(F)F)c3)n2)C1 (stereo not shown) [Example 3, N-(3-(4-((dimethylamino)methyl)-2-oxopyrrolidin-1-yl)-1-methyl-1H-pyrazol-4-yl)-2-(2-((2,2,2-trifluoroethyl)amino)pyridin-4-yl)-1,3-oxazole-4-carboxamide] | 100 | – |
| Cn1cc(NC(=O)c2coc(-c3ccnc(NCC(F)(F)F)c3)n2)c(N2CCC(C)(C)C2=O)n1 [Example 13, N-(3-(3,3-dimethyl-2-oxopyrrolidin-1-yl)-1-methyl-1H-pyrazol-4-yl)-2-(2-((2,2,2-trifluoroethyl)amino)pyridin-4-yl)-1,3-oxazole-4-carboxamide] | 98 | – |
| CN(C)[C@H]1CC(=O)N(c2nn(C)cc2NC(=O)c2coc(-c3ccnc(NCC(F)(F)F)c3)n2)C1 [Example 16, N-(3-((4S)-4-(dimethylamino)-2-oxopyrrolidin-1-yl)-1-methyl-1H-pyrazol-4-yl)-2-(2-((2,2,2-trifluoroethyl)amino)pyridin-4-yl)-1,3-oxazole-4-carboxamide] | 98 | – |
| C[C@H]1C(O)C(C)(C)C(=O)N1c1nn(C)cc1NC(=O)c1coc(-c2ccnc(NCC(F)(F)F)c2)n1 (stereo partly drawn) [Example 17, N-(3-((5S)-4-hydroxy-3,3,5-trimethyl-2-oxopyrrolidin-1-yl)-1-methyl-1H-pyrazol-4-yl)-2-(2-((2,2,2-trifluoroethyl)amino)pyridin-4-yl)-1,3-oxazole-4-carboxamide] | 77 | – |
| Cc1cccc(C(=O)Nc2cn(C)nc2N2CCC(C)(C)C2=O)n1 [Example 36, N-(3-(3,3-dimethyl-2-oxopyrrolidin-1-yl)-1-methyl-1H-pyrazol-4-yl)-6-methylpyridine-2-carboxamide] | 36 | – |
| Cn1cc(NC(=O)c2ccn(C(F)F)n2)c(N2CCC(C)(C)C2=O)n1 [Example 40, 1-(difluoromethyl)-N-(3-(3,3-dimethyl-2-oxopyrrolidin-1-yl)-1-methyl-1H-pyrazol-4-yl)-1H-pyrazole-3-carboxamide] | 56 | – |
| Cc1cccc(C(=O)Nc2cn(C)nc2N2CCC(C)(C)C2=O)c1 [Example 46, N-(3-(3,3-dimethyl-2-oxopyrrolidin-1-yl)-1-methyl-1H-pyrazol-4-yl)-3-methylbenzamide] | 30 | – |
| CN1CCN(c2nn(C)cc2NC(=O)c2coc(-c3ccnc(NCC(F)(F)F)c3)n2)C1=O [Example 48, N-(1-methyl-3-(3-methyl-2-oxoimidazolidin-1-yl)-1H-pyrazol-4-yl)-2-(2-((2,2,2-trifluoroethyl)amino)pyridin-4-yl)-1,3-oxazole-4-carboxamide] | 99 | – |
| Cn1cc(NC(=O)c2coc(-c3ccnc(NCC(F)(F)F)c3)n2)c(N2CCOC2=O)n1 [Example 55, N-(1-methyl-3-(2-oxo-1,3-oxazolidin-3-yl)-1H-pyrazol-4-yl)-2-(2-((2,2,2-trifluoroethyl)amino)pyridin-4-yl)-1,3-oxazole-4-carboxamide] | 99 | – |
